Measurements taken from patent US7772241B2, “Variolin derivatives and their use as antitumor agents” (Pharma Mar S.A., priority 2001, dated 2010).
Where two headings read alike, the source gives them in different places.

Experiments:
HT-29 = experiment: Inhibition of cells growth by colorimetric (SRB) assay, HT-29; settings: for GI50 / CC50: Homo sapiens, HT-29, 48 h
In short: (§1)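 Read-out is sulforhodamine B protein stain (OD 490 nm) after cold TCA fixation, following 48 h continuous exposure to samples spanning 10 to 10^−8 μg/ml.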

LoVo = experiment: Inhibition of cells growth by colorimetric (SRB) assay, LoVo; settings: for GI50 / CC50: Homo sapiens, LoVo, 48 h
In short: as §1

LoVo-Dox = experiment: Inhibition of cells growth by colorimetric (SRB) assay, LoVo-Dox; settings: for GI50 / CC50: Homo sapiens, 48 h
In short: as §1

DU-145 = experiment: Inhibition of cells growth by colorimetric (SRB) assay, DU-145; settings: for GI50 / CC50: Homo sapiens, DU-145, 48 h
In short: as §1

HeLa = experiment: Inhibition of cells growth by colorimetric (SRB) assay, HeLa
From the text: (§2) The finality of these assays is to interrupt the growth of a “in vitro” tumor cell culture by means a continued exhibition of the cells to the sample to be testing.
(§3) This form of the assay employs 96 well cell culture microplates of 9 mm diameter (Faircloth, 1988; Mosmann, 1983). Most of the cell lines are obtained from American Type Culture Collection (ATCC) derived from different human cancer types.
(§4) Cells are maintained in RPMI 1640 10% FBS, supplemented with 0.1 g/l penicillin and 0.1 g/l streptomycin sulphate and then incubated at 37° C., 5% CO2 and 98% humidity. For the experiments, cells were harvested from subconfluent cultures using trypsin and resuspended in fresh medium before plating.
(§5) Cells are seeded in 96 well microtiter plates, at 5×10^3 cells per well in aliquots of 195 μl medium, and they are allowed to attach to the plate surface by growing in drug free medium for 18 hours. Afterward, samples are added in aliquots of 5 μl in a ranging from 10 to 10^−8 μg/ml, dissolved in DMSO/EtOH/PBS (0.5:0.5:99). After 48 hours exposure, the antitumor effect are measured by the SRB methodology: cells are fixed by adding 50 μl of cold 50% (wt/vol) trichloroacetic acid (TCA) and incubating for 60 minutes at 4° C. Plates are washed with deionized water and dried. One hundred μl of SRB solution (0.4% wt/vol in 1% acetic acid) is added to each microtiter well and incubated for 10 minutes at room temperature. Unbound SRB is removed by washing with 1% acetic acid. Plates are air dried and bound stain is solubilized with Tris buffer. Optical densities are read on a automated spectrophotometric plate reader at a single wavelength of 490 nm.
(§6) The values for mean +/−SD of data from triplicate wells are calculated. Some parameters for cellular responses can be calculated: GI=growth inhibition, TGI=total growth inhibition (cytostatic effect) and LC=cell killing (cytotoxic effect).

PANC-1 = experiment: Inhibition of cells growth by colorimetric (SRB) assay, PANC-1; settings: for GI50 / CC50: Homo sapiens, PANC-1, 48 h
In short: as §1

SK-MEL-28 = experiment: Inhibition of cells growth by colorimetric (SRB) assay, SK-MEL-28; settings: for GI50 / CC50: Homo sapiens, SK-MEL-28, 48 h
In short: as §1

SK-BR-3 = experiment: Inhibition of cells growth by colorimetric (SRB) assay, SK-BR-3; settings: for GI50 / CC50: Homo sapiens, SK-BR-3, 48 h
In short: as §1

IGROV-ET = experiment: Inhibition of cells growth by colorimetric (SRB) assay, IGROV-ET; settings: for GI50 / CC50: Homo sapiens, 48 h
In short: as §1

HeLa-APL = experiment: Inhibition of cells growth by colorimetric (SRB) assay, HeLa-APL
From the text: as §2, §3, §4, §5, §6

IGROV-1 = experiment: Inhibition of cells growth by colorimetric (SRB) assay, IGROV-1; settings: for GI50 / CC50: Homo sapiens, IGROV-1, 48 h
In short: as §1

A-549 = experiment: Inhibition of cells growth by colorimetric (SRB) assay, A-549; settings: for GI50 / CC50: Homo sapiens, A549, 48 h
In short: as §1

HMEC1 = experiment: Inhibition of cells growth by colorimetric (SRB) assay, HMEC1
[1] = as above; settings: human, HMEC1 cells, LC50 H-MEC-1, SRB assay, 48 hours exposure
SK-OV-3 = experiment: Inhibition of cells growth by colorimetric (SRB) assay, SK-OV-3
In short: as §1

K-562 = experiment: Inhibition of cells growth by colorimetric (SRB) assay, K-562
In short: as §1

LNCaP = experiment: Inhibition of cells growth by colorimetric (SRB) assay, LNCaP
In short: as §1

SMILES: CSc1nccc(-c2c3c(Cl)ccnc3n3c(N)nccc23)n1.Cl [Compound 108]
- GI50 (HT-29; read-out: HT-29 GI50, SRB assay, 48 hours exposure): 0.701 µM
- CC50 (HT-29; read-out: HT-29 LC50, SRB assay, 48 hours exposure): 26.4 µM
- HT-29 TGI (HT-29; SRB assay, 48 hours exposure): 2.64E−05
- GI50 (LoVo; read-out: LOVO GI50, SRB assay, 48 hours exposure): 0.208 µM
- CC50 (LoVo; read-out: LOVO LC50, SRB assay, 48 hours exposure): 4.85 µM
- LOVO TGI (LoVo; SRB assay, 48 hours exposure): 7.57E−07
- GI50 (LoVo-Dox; read-out: LOVO-DOX GI50, SRB assay, 48 hours exposure): 0.68 µM
- CC50 (LoVo-Dox; read-out: LOVO-DOX LC50, SRB assay, 48 hours exposure): 26.4 µM
- LOVO-DOX TGI (LoVo-Dox; SRB assay, 48 hours exposure): 1.61E−06
- GI50 (DU-145; read-out: DU-145 GI50, SRB assay, 48 hours exposure): 1.5 µM
- CC50 (DU-145; read-out: DU-145 LC50, SRB assay, 48 hours exposure): 26.4 µM
- DU-145 TGI (DU-145; SRB assay, 48 hours exposure): 2.64E−05
- GI50 (HeLa; Homo sapiens, HeLa, 48 h, read-out: HELA GI50, SRB assay, 48 hours exposure): 0.00751 µM
- HELA TGI (HeLa; SRB assay, 48 hours exposure): 1.15E−07
- GI50 (PANC-1; read-out: PANC-1 GI50, SRB assay, 48 hours exposure): 3.37 µM
- CC50 (PANC-1; read-out: PANC-1 LC50, SRB assay, 48 hours exposure): 26.4 µM
- PANC-1 TGI (PANC-1; SRB assay, 48 hours exposure): 2.64E−05
- GI50 (SK-MEL-28; read-out: MEL-28 GI50, SRB assay, 48 hours exposure): 0.925 µM
- CC50 (SK-MEL-28; read-out: MEL-28 LC50, SRB assay, 48 hours exposure): 26.4 µM
- MEL-28 TGI (SK-MEL-28; SRB assay, 48 hours exposure): 2.64E−05
- GI50 (SK-BR-3; read-out: SK-BR-3 GI50, SRB assay, 48 hours exposure): 5.62 µM
- CC50 (SK-BR-3; read-out: SK-BR-3 LC50, SRB assay, 48 hours exposure): 26.4 µM
- SK-BR-3 TGI (SK-BR-3; SRB assay, 48 hours exposure): 1.60E−05
- GI50 (IGROV-ET; read-out: IGROV-ET GI50, SRB assay, 48 hours exposure): 11.3 µM
- CC50 (IGROV-ET; read-out: IGROV-ET LC50, SRB assay, 48 hours exposure): 26.4 µM
- IGROV-ET TGI (IGROV-ET; SRB assay, 48 hours exposure): 2.64E−05
- GI50 (HeLa-APL; Homo sapiens, 48 h, read-out: HELA-APL GI50, SRB assay, 48 hours exposure): 0.00954 µM
- CC50 (HeLa-APL; Homo sapiens, 48 h, read-out: HELA-APL LC50, SRB assay, 48 hours exposure): 26.4 µM
- HELA-APL TGI (HeLa-APL; SRB assay, 48 hours exposure): 2.04E−07
- GI50 (IGROV-1; read-out: IGROV GI50, SRB assay, 48 hours exposure): 2.33 µM
- CC50 (IGROV-1; read-out: IGROV LC50, SRB assay, 48 hours exposure): 26.4 µM
- IGROV TGI (IGROV-1; SRB assay, 48 hours exposure): 2.64E−05
- GI50 (A-549; read-out: A-549 GI50, SRB assay, 48 hours exposure): 2.02 µM
- CC50 (A-549; read-out: A-549 LC50, SRB assay, 48 hours exposure): 26.4 µM
- A-549 TGI (A-549; SRB assay, 48 hours exposure): 2.16E−05

SMILES: CS(=O)(=O)c1nccc(-c2c3c(Cl)ccnc3n3c(N)nccc23)n1 [Compound 111]
- GI50 (HMEC1; Homo sapiens, HMEC-1, 48 h, read-out: GI50 H-MEC-1, SRB assay, 48 hours exposure): 0.00108 µM
- TGI H-MEC-1 (HMEC1; SRB assay, 48 hours exposure, in M (unit assumed)): 1.53E−08
- CC50 at 48 h [1]: 0.603 µM
- GI50 (SK-OV-3; Homo sapiens, SK-OV-3, 48 h, read-out: GI50 SKOV-3, SRB assay, 48 hours exposure): 2.05 µM
- CC50 (SK-OV-3; Homo sapiens, SK-OV-3, 48 h, read-out: LC50 SKOV-3, SRB assay, 48 hours exposure): 21.8 µM
- TGI SKOV-3 (SK-OV-3; SRB assay, 48 hours exposure): 6.88E−06
- GI50 (K-562; Homo sapiens, K562, 48 h, read-out: GI50 K-562, SRB assay, 48 hours exposure): 7.26 µM
- CC50 (K-562; Homo sapiens, K562, 48 h, read-out: LC50 K-562, SRB assay, 48 hours exposure): 26.7 µM
- TGI K-562 (K-562; SRB assay, 48 hours exposure): 1.59E−05
- GI50 (HT-29; read-out: GI50 HT-29, SRB assay, 48 hours exposure): 5.34 µM
- CC50 (HT-29; read-out: LC50 HT-29, SRB assay, 48 hours exposure): 26.7 µM
- TGI HT-29 (HT-29; SRB assay, 48 hours exposure): 1.66E−05
- GI50 (LoVo; read-out: GI50 LOVO, SRB assay, 48 hours exposure): 1.54 µM
- CC50 (LoVo; read-out: LC50 LOVO, SRB assay, 48 hours exposure): 26.7 µM
- TGI LOVO (LoVo; SRB assay, 48 hours exposure): 6.99E−06
- GI50 (LoVo-Dox; read-out: GI50 LOVO-DOX, SRB assay, 48 hours exposure): 1.51 µM
- CC50 (LoVo-Dox; read-out: LC50 LOVO-DOX, SRB assay, 48 hours exposure): 26.7 µM
- TGI LOVO-DOX (LoVo-Dox; SRB assay, 48 hours exposure): 7.07E−06
- GI50 (DU-145; read-out: GI50 DU-145, SRB assay, 48 hours exposure): 1.94 µM
- CC50 (DU-145; read-out: LC50 DU-145, SRB assay, 48 hours exposure): 16.8 µM
- TGI DU-145 (DU-145; SRB assay, 48 hours exposure): 6.40E−06
- GI50 (PANC-1; read-out: GI50 PANC-1, SRB assay, 48 hours exposure): 3.07 µM
- CC50 (PANC-1; read-out: LC50 PANC-1, SRB assay, 48 hours exposure): 24.6 µM
- TGI PANC-1 (PANC-1; SRB assay, 48 hours exposure): 8.70E−06
- GI50 (SK-MEL-28; read-out: GI50 MEL-28, SRB assay, 48 hours exposure): 1.25 µM
- CC50 (SK-MEL-28; read-out: LC50 MEL-28, SRB assay, 48 hours exposure): 15.7 µM
- TGI MEL-28 (SK-MEL-28; SRB assay, 48 hours exposure): 5.15E−06
- GI50 (SK-BR-3; read-out: GI50 SK-BR-3, SRB assay, 48 hours exposure): 4.35 µM
- CC50 (SK-BR-3; read-out: LC50 SK-BR-3, SRB assay, 48 hours exposure): 21.3 µM
- TGI SK-BR-3 (SK-BR-3; SRB assay, 48 hours exposure): 9.69E−06
- GI50 (IGROV-ET; read-out: GI50 IGROV-ET, SRB assay, 48 hours exposure): 3.87 µM
- CC50 (IGROV-ET; read-out: LC50 IGROV-ET, SRB assay, 48 hours exposure): 26.7 µM
- TGI IGROV-ET (IGROV-ET; SRB assay, 48 hours exposure): 1.10E−05
- GI50 (IGROV-1; read-out: GI50 IGROV, SRB assay, 48 hours exposure): 3.55 µM
- CC50 (IGROV-1; read-out: LC50 IGROV, SRB assay, 48 hours exposure): 25.9 µM
- TGI IGROV (IGROV-1; SRB assay, 48 hours exposure): 9.60E−06
- GI50 (A-549; read-out: GI50 A-549, SRB assay, 48 hours exposure): 4.35 µM
- CC50 (A-549; read-out: LC50 A-549, SRB assay, 48 hours exposure): 26.7 µM
- TGI A-549 (A-549; SRB assay, 48 hours exposure): 1.30E−05
- GI50 (LNCaP; Homo sapiens, LNCaP, 48 h, read-out: GI50 LN-caP, SRB assay, 48 hours exposure): 4.3 µM
- CC50 (LNCaP; Homo sapiens, LNCaP, 48 h, read-out: LC50 LN-caP, SRB assay, 48 hours exposure): 19.9 µM
- TGI LN-caP (LNCaP; SRB assay, 48 hours exposure): 9.26E−06
